Reference: patent EP2926812A1, “USE OF ARTEMETHER IN PREPARATION OF DRUG FOR TREATING LEUKEMIA” (Kunming Pharmaceutical Corp., priority 2012, dated 2014)

Key:
[1] = system: K562 nude mice transplanted tumor; assay: Inhibition of growth of K562 nude mice transplanted tumor (pre-trial, experiment 1, experiment 2); assay type: in vivo, Balb/c nude mice; conditions: for tumor sizes: n=6
Source text: 2.4 K562 cell: primary K562 cell is derived from bone marrow of a patient having leukemia, introduced by Blood Research Institute from abroad, stored and passaged in Pathologic Cell Bank; cultured in RPMI1640 medium (comprising 10% fetal bovine serum).
2.6 experimental animal: Balb/c nude mice, 4~5 weeks old, weight: 17~20 g, gender: half male and half female. Experimental Animal Institute of the Chinese Academy of Medical Sciences, certification number of experimental animals: SCXK (JING) 2005-0013.
3.1.1 Balb/c nude mice were subjected to 3.0Gy whole-body irradiation, after subcutaneous inoculation of primary K562 cells. About 4 weeks after inoculation, tumor masses in growing were removed and transplanted into […], and this process was repeated for 2~3 passages to establish high oncogenic K562 cell line.
(§1) 3.1.2 Nude mice were subjected to 3.0Gy whole-body irradiation, after subcutaneous inoculation of the K562 cells. One week after inoculation, nude mice with visible tumors were divided into the following 4 groups each consisting of 6 animals. The following dosages were administered for 3 continuous weeks, with 7 doses per week, a total of 21 doses.
Model control group: intraperitoneal injection of 20% aqueous solution of excipient at 0.2 ml/animal.
High dosage group: intraperitoneal injection of artemether at 150 ml/kg.
Middle dosage group: intraperitoneal injection of artemether at 100 ml/kg.
Low dosage group: intraperitoneal injection of artemether at 50 ml/kg.
(§2) Nude mice were subjected to a 3.0Gy whole-body irradiation, after subcutaneous inoculation of the K562 cells. One week after inoculation, nude mice with visible tumors were divided into the following 5 groups each consisting of 6 animals. The following dosages were administered for 3 continuous weeks, with 5 doses per week, a total of 15 doses.
Positive control group: intraperitoneal injection of cyclophosphamide at 10 ml/kg.
High dosage group: intraperitoneal injection of artemether at 100 ml/kg.
Middle dosage group: intraperitoneal injection of artemether at 60 ml/kg.
Low dosage group: intraperitoneal injection of artemether at 40 ml/kg.
(§3) Nude mice were subjected to a 3.0Gy whole-body irradiation, after subcutaneous inoculation of the K562 cells. One week after inoculation, nude mice with visible tumors were divided into the following 5 groups each consisting of 6 nude mice.
Model control group: intraperitoneal injection of 20% solution of excipient at 0.2ml/animal. The dosage was administered for 3 weeks, with 7 doses per week, a total of 21 doses.
Positive control group: intraperitoneal injection of cyclophosphamide at 10 ml/kg. The dosage was administered for 3 weeks, with 7 doses per week, a total of 21 doses.
(§4) High dosage group: intraperitoneal injection of artemether at 100 ml/kg. The dosage was administered for 3 weeks, with 5 doses per week, a total of 15 doses.
(§5) Middle dosage group: intraperitoneal injection of artemether at 60 ml/kg. The dosage was administered for 3 weeks, with 7 doses per week, a total of 21 doses.
(§6) Low dosage group: intraperitoneal injection of artemether at 40 ml/kg. The dosage was administered for 3 weeks, with 7 doses per week, a total of 21 doses.

[2] = system: K562 nude mice transplanted tumor; assay: Apoptosis of tumor cells from tumor-bearing animals (pre-trial); assay type: in vivo, Balb/c nude mice; conditions: 21 doses
Method: as §1
The effect of the drug on the apoptosis of the tumor cell: from the result of pre-trial (table 3), it appears that the apoptosis ratio in control group is higher than that in the treated group. In fact, this is because the tutor of control group grows more rapidly, has a larger volume, and thus a more significant necrosis. […] However, cells which are not inhibited by the drug form a tumor mass that are not different much from the tumor mass in control group. Therefore, in a mechanism study, tumor cells in vivo should not be used, and an in vitro test is preferred.

[3] = mouse, in vivo
Method: as §2, §3, §4, §5, §6

Work on `CO[C@H]1O[C@@H]2O[C@@]3(C)CC[C@H]4[C@H](C)CC[C@@H]([C@H]1C)[C@@]24OO3` [artemether] yielded a tumor sizes ([1]; experiment 1, High dosage group: artemether 100 ml/kg intraperitoneal, 15 doses in 3 weeks, 1 week after inoculation) of 55.6±11.4 mm3, a tumor sizes ([1]; experiment 1, High dosage group: artemether 100 ml/kg intraperitoneal, 15 doses in 3 weeks, 2 weeks after inoculation) of 72.9±70.8 mm3 and a tumor sizes ([1]; experiment 1, High dosage group: artemether 100 ml/kg intraperitoneal, 15 doses in 3 weeks, 3 weeks after inoculation) of 307.9±223.2 mm3. The tumor sizes ([1]; experiment 1, High dosage group: artemether 100 ml/kg intraperitoneal, 15 doses in 3 weeks, 4 weeks after inoculation) was 489.2±199.9 mm3, the tumor mass ([1]; experiment 1, High dosage group: artemether 100 ml/kg intraperitoneal, 15 doses, 4 weeks after inoculation) was 340.0 ± 237.6 mg and the tumor sizes ([1]; experiment 1, Low dosage group: artemether 40 ml/kg intraperitoneal, 15 doses in 3 weeks, 1 week after inoculation) was 42.0±9.0 mm3. The tumor sizes ([1]; experiment 1, Low dosage group: artemether 40 ml/kg intraperitoneal, 15 doses in 3 weeks, 2 weeks after inoculation) was 148.4±75.6 mm3, the tumor sizes ([1]; experiment 1, Low dosage group: artemether 40 ml/kg intraperitoneal, 15 doses in 3 weeks, 3 weeks after inoculation) was 432.6±332.5 mm3 and the tumor sizes ([1]; experiment 1, Low dosage group: artemether 40 ml/kg intraperitoneal, 15 doses in 3 weeks, 4 weeks after inoculation) was 1127.7±142.8 mm3. For the same compound, the tumor mass ([1]; experiment 1, Low dosage group: artemether 40 ml/kg intraperitoneal, 15 doses, 4 weeks after inoculation) was 1135.0 ± 457.2 mg, the tumor sizes ([1]; experiment 1, Middle dosage group: artemether 60 ml/kg intraperitoneal, 15 doses in 3 weeks, 1 week after inoculation) was 51.3±4.5 mm3 and the tumor sizes ([1]; experiment 1, Middle dosage group: artemether 60 ml/kg intraperitoneal, 15 doses in 3 weeks, 2 weeks after inoculation) was 127.5±22.3 mm3. The tumor sizes ([1]; experiment 1, Middle dosage group: artemether 60 ml/kg intraperitoneal, 15 doses in 3 weeks, 3 weeks after inoculation) was 376.7±135.8 mm3, the tumor sizes ([1]; experiment 1, Middle dosage group: artemether 60 ml/kg intraperitoneal, 15 doses in 3 weeks, 4 weeks after inoculation) was 1035.6±248.5 mm3 and the tumor mass ([1]; experiment 1, Middle dosage group: artemether 60 ml/kg intraperitoneal, 15 doses, 4 weeks after inoculation) was 736.7 ± 247.6 mg. The tumor sizes ([1]; experiment 2, High dosage group: artemether 100 ml/kg intraperitoneal, 15 doses in 3 weeks, 1 week after inoculation) was 33.9±14.4 mm3, the tumor sizes ([1]; experiment 2, High dosage group: artemether 100 ml/kg intraperitoneal, 15 doses in 3 weeks, 2 weeks after inoculation) was 75.5±27.2 mm3 and the tumor sizes ([1]; experiment 2, High dosage group: artemether 100 ml/kg intraperitoneal, 15 doses in 3 weeks, 3 weeks after inoculation) was 137.1±101.6 mm3. For the same compound, the tumor sizes ([1]; experiment 2, High dosage group: artemether 100 ml/kg intraperitoneal, 15 doses in 3 weeks, 4 weeks after inoculation) was 291.7±191.5 mm3, the tumor mass ([1]; experiment 2, High dosage group: artemether 100 ml/kg intraperitoneal, 15 doses, 4 weeks after inoculation) was 230 ± 1153.4 mg and the tumor sizes ([1]; experiment 2, Low dosage group: artemether 40 ml/kg intraperitoneal, 21 doses in 3 weeks, 1 week after inoculation) was 26.7±5.9 mm3. For the same compound, the tumor sizes ([1]; experiment 2, Low dosage group: artemether 40 ml/kg intraperitoneal, 21 doses in 3 weeks, 2 weeks after inoculation) was 203.7±127.3 mm3, the tumor sizes ([1]; experiment 2, Low dosage group: artemether 40 ml/kg intraperitoneal, 21 doses in 3 weeks, 3 weeks after inoculation) was 297.4±86.6 mm3 and the tumor sizes ([1]; experiment 2, Low dosage group: artemether 40 ml/kg intraperitoneal, 21 doses in 3 weeks, 4 weeks after inoculation) was 729.2±272.8 mm3. It also gave a tumor mass ([1]; experiment 2, Low dosage group: artemether 40 ml/kg intraperitoneal, 21 doses, 4 weeks after inoculation) of 645 ± 314.7 mg, a tumor sizes ([1]; experiment 2, Middle dosage group: artemether 60 ml/kg intraperitoneal, 21 doses in 3 weeks, 1 week after inoculation) of 22.7±7.4 mm3 and a tumor sizes ([1]; experiment 2, Middle dosage group: artemether 60 ml/kg intraperitoneal, 21 doses in 3 weeks, 2 weeks after inoculation) of 118.4±129.0 mm3. It also gave a tumor sizes ([1]; experiment 2, Middle dosage group: artemether 60 ml/kg intraperitoneal, 21 doses in 3 weeks, 3 weeks after inoculation) of 201.2±98.9 mm3, a tumor sizes ([1]; experiment 2, Middle dosage group: artemether 60 ml/kg intraperitoneal, 21 doses in 3 weeks, 4 weeks after inoculation) of 746.6±393.7 mm3 and a tumor mass ([1]; experiment 2, Middle dosage group: artemether 60 ml/kg intraperitoneal, 21 doses, 4 weeks after inoculation) of 630 ± 418.9 mg. For the same compound, the inhibition ratio ([1]; of tumor mass, experiment 1, Low dosage group: artemether 40 ml/kg intraperitoneal, 15 doses, 4 weeks after inoculation, listed as artemether lyophilized powder for injection) was “no significant inhibition”, the inhibition ratio ([1]; of tumor mass, experiment 1, Middle dosage group: artemether 60 ml/kg intraperitoneal, 15 doses, 4 weeks after inoculation, listed as artemether lyophilized powder for injection) was 31% and the inhibition ratio ([1]; of tumor mass, experiment 2, Low dosage group: artemether 40 ml/kg intraperitoneal, 21 doses, 4 weeks after inoculation, listed as artemether lyophilized powder for injection) was 55%. It also gave an inhibition ratio ([1]; of tumor mass, experiment 2, Middle dosage group: artemether 60 ml/kg intraperitoneal, 21 doses, 4 weeks after inoculation, listed as artemether lyophilized powder for injection) of 56%, an inhibition ratio ([1]; of tumor mass, pre-trial, Low dosage group: artemether 50 ml/kg intraperitoneal, 21 doses, 4 weeks after administration) of 41.1% and an inhibition ratio ([1]; of tumor mass, pre-trial, Middle dosage group: artemether 100 ml/kg intraperitoneal, 21 doses, 4 weeks after administration) of 64.9%. For the same compound, the inhibition ratio ([1]; of tumor volume, pre-trial, Low dosage group: artemether 50 ml/kg intraperitoneal, 21 doses, 3 weeks after administration) was 43.6%, the inhibition ratio ([1]; of tumor volume, pre-trial, Low dosage group: artemether 50 ml/kg intraperitoneal, 21 doses, 4 weeks after administration) was 44.6% and the inhibition ratio ([1]; of tumor volume, pre-trial, Middle dosage group: artemether 100 ml/kg intraperitoneal, 21 doses, 3 weeks after administration) was 70.3%. The inhibition ratio ([1]; of tumor volume, pre-trial, Middle dosage group: artemether 100 ml/kg intraperitoneal, 21 doses, 4 weeks after administration) was 69.1%, the tumor volume ([1]; pre-trial, High dosage group: artemether 150 ml/kg intraperitoneal, 21 doses in 3 weeks, 1 week after administration) was 55.3 mm3 and the tumor volume ([1]; pre-trial, High dosage group: artemether 150 ml/kg intraperitoneal, 21 doses in 3 weeks, 2 weeks after administration) was 136.8 mm3. For the same compound, the tumor volume ([1]; pre-trial, High dosage group: artemether 150 ml/kg intraperitoneal, 21 doses in 3 weeks, 3 weeks after administration) was 454.1 mm3, the tumor volume ([1]; pre-trial, High dosage group: artemether 150 ml/kg intraperitoneal, 21 doses in 3 weeks, 4 weeks after administration) was 663.1 mm3 and the tumor mass ([1]; pre-trial, High dosage group: artemether 150 ml/kg intraperitoneal, 21 doses, 4 weeks after administration) was 590 mg. For the same compound, the tumor volume ([1]; pre-trial, Low dosage group: artemether 50 ml/kg intraperitoneal, 21 doses in 3 weeks, 1 week after administration) was 174.9±74.7 mm3, the tumor volume ([1]; pre-trial, Low dosage group: artemether 50 ml/kg intraperitoneal, 21 doses in 3 weeks, 2 weeks after administration) was 535.5±253.42 mm3 and the tumor volume ([1]; pre-trial, Low dosage group: artemether 50 ml/kg intraperitoneal, 21 doses in 3 weeks, 3 weeks after administration) was 997.1±327.71 mm3. It also gave a tumor volume ([1]; pre-trial, Low dosage group: artemether 50 ml/kg intraperitoneal, 21 doses in 3 weeks, 4 weeks after administration) of 1672.0 ± 331.0 mm3, a tumor mass ([1]; pre-trial, Low dosage group: artemether 50 ml/kg intraperitoneal, 21 doses, 4 weeks after administration) of 1436 ± 281.3 mg and a tumor volume ([1]; pre-trial, Middle dosage group: artemether 100 ml/kg intraperitoneal, 21 doses in 3 weeks, 1 week after administration) of 93.6±43.6 mm3. For the same compound, the tumor volume ([1]; pre-trial, Middle dosage group: artemether 100 ml/kg intraperitoneal, 21 doses in 3 weeks, 2 weeks after administration) was 219.9 ± 110.83 mm3, the tumor volume ([1]; pre-trial, Middle dosage group: artemether 100 ml/kg intraperitoneal, 21 doses in 3 weeks, 3 weeks after administration) was 524.6±265.57 mm3 and the tumor volume ([1]; pre-trial, Middle dosage group: artemether 100 ml/kg intraperitoneal, 21 doses in 3 weeks, 4 weeks after administration) was 931.8±307.9 mm3. The tumor mass ([1]; pre-trial, Middle dosage group: artemether 100 ml/kg intraperitoneal, 21 doses, 4 weeks after administration) was 857 ± 574.4 mg, the apoptosis ratio ([2]; High dosage group: artemether 150 intraperitoneal) was 2.63% and the apoptosis ratio ([2]; Low dosage group: artemether 50 intraperitoneal) was 1.37±0.47%. The apoptosis ratio ([2]; Middle dosage group: artemether 100 intraperitoneal) was 2.04 ±1.58% and the toxicity [3] was “without toxicity”.
